Experimental data: patent US10076519B2 (CYTOKINETICS, INC., priority 2010, dated 2018)

Each compound was assayed on rabbit skeletal myofibrils (fast skeletal myofibrils) (assay: Activation of fast skeletal myofibrils (PUMA assay, PK/LDH-coupled ATPase at pCa25)). Settings: AC1.4 determined according to the procedure of Example 39; reported as class symbols.
Format: biochemical
Method in brief: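 ATPase activity of Triton-washed rabbit skeletal myofibrils, roughly 90% fast fibres, tracked by NADH loss at 340 nm through a PK/LDH-coupled ADP-regenerating system. Calcium set to 25% of maximal activity (pCa25), in PIPES 12 mM pH 6.8 with 2 mM MgCl2 and 1 mM DTT; AC1.4 reported.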
`CNc1n[nH]c2ccc(-c3ccc(NCC(C)(C)c4ccc(F)cc4)nn3)cc12` [[2-(4-fluorophenyl)-2-methylpropyl]{6-[3-(methylamino)(1H-indazol-5-yl)]pyridazin-3-yl}amine] was tested, and the “Mean AC1.4” value was “B (B=1-10 uM)”. In the case of `CC(C)(CNc1ccc(C(=O)NC2(C(=O)O)CC2)nn1)c1ccc(F)cc1` [1-[(6-{[2-(4-fluorophenyl)-2-methylpropyl]amino}pyridazin-3-yl)carbonylamino]cyclopropane-carboxylic acid], the “Mean AC1.4” value is reported as “D (D=>20 uM)”. With `CC(=O)Nc1nc2cc(-c3ccc(NCC(C)(C)c4ccc(F)cc4)nn3)ccc2[nH]1` [N-[6-(6-{[2-(4-fluorophenyl)-2-methylpropyl]amino}pyridazin-3-yl)benzimidazol-2-yl]acetamide] the “Mean AC1.4” value was “A (A=<1 uM)”. With `CC(=O)Nc1n[nH]c2ccc(-c3ccc(NCC4(c5ncccc5F)CCC4)nn3)cc12` the “Mean AC1.4” value was “B (B=1-10 uM)”. `c1ccc(C2(CNc3ccc(-c4ccc5[nH]ncc5c4)nn3)CCC2)nc1` [(6-(1H-indazol-5-yl)pyridazin-3-yl)[(2-pyridylcyclobutyl)methyl]amine] was tested, and the “Mean AC1.4” value was “A (A=<1 uM)”. `CN(C)Cc1ccc(C(C)(C)CNc2ccc(-c3ccc4[nH]nc(N)c4c3)nn2)cc1` was tested, and the “Mean AC1.4” value was “D (D=>20 uM)”. `CC(C)(CNc1ccc(-c2cnc3[nH]ncc3c2)nn1)c1ccc(F)cc1` [[2-(4-fluorophenyl)-2-methylpropyl](6-pyrazolo[5,4-b]pyridin-5-ylpyridazin-3-yl)amine] was tested, and the “Mean AC1.4” value was “B (B=1-10 uM)”. `CC(C)(CNc1ccc(CO)nn1)c1ccc(F)cc1` was tested, and the “Mean AC1.4” value was “D (D=>20 uM)”. With `COc1cccc(C(C)(C)CNc2ccc(-c3ccc4[nH]nc(N)c4c3)nn2)c1` [[6-(3-amino(1H-indazol-5-yl))pyridazin-3-yl][2-(3-methoxyphenyl)-2-methylpropyl]amine] the “Mean AC1.4” value was “A (A=<1 uM)”. In the case of `COc1ncccc1-c1ccc(NCC(C)(C)c2ccc(F)cc2)nn1` [[2-(4-fluorophenyl)-2-methylpropyl][6-(2-methoxy(3-pyridyl))pyridazin-3-yl]amine], the “Mean AC1.4” value is reported as “A (A=<1 uM)”. `Nc1ccc(-c2ccc(NCC3(c4ncccc4F)CCC3)nn2)cc1F` [[6-(4-amino-3-fluorophenyl)pyridazin-3-yl]{[(3-fluoro(2-pyridyl))cyclobutyl]meth-yl}amine] was tested, and the “Mean AC1.4” value was “A (A=<1 uM)”. In the case of `COc1cccnc1C1(CNc2ccc(-c3ccc4cn[nH]c4c3)nn2)CCC1` [(6-(1H-indazol-6-yl)pyridazin-3-yl){[(3-methoxy(2-pyridyl))cyclobutyl]methyl}amine], the “Mean AC1.4” value is reported as “B (B=1-10 uM)”. With `CNc1n[nH]c2ccc(-c3ccc(NCC4(c5ncccc5F)CCC4)nn3)cc12` [{[(3-fluoro(2-pyridyl))cyclobutyl]methyl}{6-[3-(methylamino)(1H-indazol-5-yl)]pyridazin-3-yl}amine] the “Mean AC1.4” value was “A (A=<1 uM)”. `N#Cc1cccc(-c2ccc(NCC3(C(=O)O)CCC3)nn2)c1` [1-({[6-(3-cyanophenyl)pyridazin-3-yl]amino}methyl)cyclobutane-carboxylic acid] was tested, and the “Mean AC1.4” value was “D (D=>20 uM)”. `NC(=O)Nc1cccc(-c2ccc(NCC3(c4ncccc4F)CCC3)nn2)c1` was tested, and the “Mean AC1.4” value was “A (A=<1 uM)”.

Same assay, conditions: median AC1.4 class, procedure of Example 39
In the case of `NC(=O)CNC(=O)c1cnc(-c2ccc(NCC3(c4ncccc4F)CCC3)nn2)s1` [N-(carbamoylmethyl){2-[6-({[(3-fluoro(2-pyridyl))cyclobutyl]methyl}ami-no)pyridazin-3-yl](1,3-thiazol-5-yl)}carboxamide], the “Mean AC1.4” value is reported as “A (A=<1 uM)”. For `NC(=O)Nc1ncc(-c2ccc(NCC3(c4ncccc4F)CCC3)nn2)cn1`, the “Mean AC1.4” value was “D (D=>20 uM)”. With `O=C(c1cnc(-c2ccc(NCC3(c4ncccc4F)CCC3)nn2)s1)N1CCCC(O)C1` (stereo not shown) [2-[6-({[(3-fluoro(2-pyridyl))cyclobutyl]methyl}ami-no)pyridazin-3-yl](1,3-thiazol-5-yl) 3-hydroxypiperidyl ketone] the “Mean AC1.4” value was “C (C=10-20 uM)”. In the case of `COc1cccnc1C1(Nc2ccc(-c3cc(C(N)=O)ccc3F)nn2)CCC1`, the “Mean AC1.4” value is reported as “C (C=10-20 uM)”. For `CC(C)NC(=O)c1cnc(-c2ccc(NCC3(c4ncccc4F)CCC3)nn2)s1` [{2-[6-({[(3-fluoro(2-pyridyl))cyclobutyl]methyl}ami-no)pyridazin-3-yl](1,3-thiazol-5-yl)}-N-(methylethyl)carboxamide], the “Mean AC1.4” value was “B (B=1-10 uM)”. In the case of `NC(=O)c1cccc(-c2ccc(NC3(c4cccc(F)c4)CCC3)nn2)c1`, the “Mean AC1.4” value is reported as “B (B=1-10 uM)”. `Fc1cccnc1C1(CNc2ccc(-c3cnc(N4CCNCC4)nc3)nn2)CCC1` [{[(3-fluoro(2-pyridyl))cyclobutyl]methyl}[6-(2-piperazinylpyrimidin-5-yl)pyridazin-3-yl]amine] was tested, and the “Mean AC1.4” value was “D (D=>20 uM)”. In the case of `N#Cc1cncc(-c2ccc(NCC3(c4ncccc4F)CCC3)nn2)n1` [6-[6-({[(3-fluoro-2-pyridyl)cyclobutyl]methyl}ami-no)pyridazin-3-yl]pyrazine-2-carbonitrile], the “Mean AC1.4” value is reported as “B (B=1-10 uM)”. With `NC(=O)c1ccc(F)c(-c2ccc(NC3(c4ncccc4OC(F)F)CCC3)nn2)c1` the “Mean AC1.4” value was “C (C=10-20 uM)”. `CC(C)(CNc1ccc(-c2ccc3[nH]nc(NCCO)c3c2)nn1)c1ccc(F)cc1` [2-{[5-(6-{[2-(4-fluorophenyl)-2-methylpropyl]amino}pyridazin-3-yl)-1H-indazol-3-yl]amino}ethan-1-ol] was tested, and the “Mean AC1.4” value was “A (A=<1 uM)”. In the case of `CC(C)(CNc1ccc(-c2cccc(C#N)c2)nn1)c1ncccc1Cl` [3-(6-{[2-(3-chloro(2-pyridyl))-2-methylpropyl]amino}pyridazin-3-yl)benzenecarbonitrile], the “Mean AC1.4” value is reported as “B (B=1-10 uM)”. With `O=C(NC1CCNC1)c1cnc(-c2ccc(NCC3(c4ncccc4F)CCC3)nn2)s1` (stereo not shown) [{2-[6-({[(3-fluoro(2-pyridyl))cyclobutyl]methyl}ami-no)pyridazin-3-yl](1,3-thiazol-5-yl)}-N-pyrrolidin-3-ylcarboxamide] the “Mean AC1.4” value was “A (A=<1 uM)”. `NC(=O)c1ccc(-c2ccc(NCC3(c4ncccc4F)CCC3)nn2)s1` [5-[6-({[(3-fluoro-2-pyridyl)cyclobutyl]methyl}ami-no)pyridazin-3-yl]thiophene-2-carboxamide] was tested, and the “Mean AC1.4” value was “A (A=<1 uM)”. For `O=C1Cc2cc(-c3ccc(NCC4(c5ncccc5F)CCC4)nn3)ccc2N1`, the “Mean AC1.4” value was “B (B=1-10 uM)”. `NC(=O)c1cccc(-c2ccc(NC3(c4ccccc4)CCC3)nn2)c1` was tested, and the “Mean AC1.4” value was “B (B=1-10 uM)”. In the case of `O=C(N[C@@H]1CCNC1)c1ccc(F)c(-c2ccc(NC[C@]3(c4ncccc4F)C[C@H](F)C3)nn2)c1` [N-((3R)pyrrolidin-3-yl){4-fluoro-3-[6-({[3-fluoro-1-(3-fluoro(2-pyridyl))cyclobutyl]methyl}ami-no)pyridazin-3-yl]phenyl}carboxamide], the “Mean AC1.4” value is reported as “B (B=1-10 uM)”.

Same assay, conditions: median AC1.4 reported as class; procedure of Example 39
In the case of `CC(=O)NCc1nc(-c2ccc(NCC3(c4ncccc4F)CCC3)nn2)cs1` [N-({4-[6-({[(3-fluoro-2-pyridyl)cyclobutyl]methyl}ami-no)pyridazin-3-yl]-1,3-thiazol-2-yl}methyl)acetamide], the “Mean AC1.4” value is reported as “D (D=>20 uM)”. With `CC(C)(O)CNC(=O)c1cccc(-c2ccc(NC[C@]3(c4ncccc4F)C[C@H](F)C3)nn2)c1` [{3-[6-({[3-fluoro-1-(3-fluoro(2-pyridyl))cyclobutyl]methyl}ami-no)pyridazin-3-yl]phenyl}-N-(2-hydroxy-2-methylpropyl)carboxamide] the “Mean AC1.4” value was “B (B=1-10 uM)”. In the case of `OC[C@@H]1CNCCN1Cc1cnc(-c2ccc(NCC3(c4ncccc4F)CCC3)nn2)s1` [[(2S)-1-({2-[6-({[(3-fluoro(2-pyridyl))cyclobutyl]methyl}ami-no)pyridazin-3-yl](1,3-thiazol-5-yl)}methyl)piperazin-2-yl]methan-1-ol], the “Mean AC1.4” value is reported as “B (B=1-10 uM)”. With `CCOC(=O)Cc1csc(NC(=O)c2ccc(NCC3(c4ncccc4F)CCC3)nn2)n1` [ethyl 2-(2-{[6-({[(3-fluoro-2-pyridyl)cyclobutyl]methyl}ami-no)pyridazin-3-yl]carbonylamino}-1,3-thiazol-4-yl)acetate] the “Mean AC1.4” value was “A (A=<1 uM)”. `Cc1cc(C(N)=O)c(O)c(-c2ccc(NCC3(c4ncccc4F)CCC3)nn2)c1` [3-[6-({[(3-fluoro(2-pyridyl))cyclobutyl]methyl}ami-no)pyridazin-3-yl]-2-hydroxy-5-methylbenzamide] was tested, and the “Mean AC1.4” value was “B (B=1-10 uM)”. `CNC(=O)Nc1ccc(-c2ccc(NC[C@]3(c4ncccc4F)C[C@H](F)C3)nn2)cc1` [N-{4-[6-({[3-fluoro-1-(3-fluoro(2-pyridyl))cyclobutyl]methyl}ami-no)pyridazin-3-yl]phenyl}(methylamino)carbox-amide] was tested, and the “Mean AC1.4” value was “A (A=<1 uM)”. In the case of `Cc1cc(NCC2(c3ncccc3F)CCC2)nnc1-c1ncc(C(N)=O)s1` [2-[6-({[(3-fluoro(2-pyridyl))cyclobutyl]methyl}amino)-4-methylpyridazin-3-yl]-1,3-thiazole-5-carboxamide], the “Mean AC1.4” value is reported as “A (A=<1 uM)”. `COC(=O)NC1CCc2sc(-c3ccc(NCC4(c5ncccc5F)CCC4)nn3)nc21` (stereo not shown) [N-{2-[6-({[(3-fluoro(2-pyridyl))cyclobutyl]methyl}ami-no)pyridazin-3-yl](4,5,6-trihydrocyclopenta[2,3-d]1,3-thiazol-4-yl)}methoxycarboxamide] was tested, and the “Mean AC1.4” value was “D (D=>20 uM)”. In the case of `NC(=O)N1CCc2nc(-c3ccc(NCC4(c5ncccc5F)CCC4)nn3)sc2C1` [2-[6-({[(3-fluoro-2-pyridyl)cyclobutyl]methyl}ami-no)pyridazin-3-yl]-4,5,6,7-tetrahydro-1,3-thiazolo[5,4-c]pyridine-5-carboxamide], the “Mean AC1.4” value is reported as “D (D=>20 uM)”.
